Reference: article PMC7298613, “Degradation of okadaic acid in seawater by UV/TiO2 photocatalysis – Proof of concept” (The Science of the Total Environment, 2020)

Biological target: T1, protein phosphatase-1 catalytic subunit (PP1c) (Oryctolagus cuniculus, UniProt P62139)
T1 construct: gene PPP1CA; catalytic subunit
Assay: colorimetric pNPP phosphatase inhibition assay, absorbance at […] nm, PP1 […]
Format: biochemical

T1 sequence (P62139 2-330): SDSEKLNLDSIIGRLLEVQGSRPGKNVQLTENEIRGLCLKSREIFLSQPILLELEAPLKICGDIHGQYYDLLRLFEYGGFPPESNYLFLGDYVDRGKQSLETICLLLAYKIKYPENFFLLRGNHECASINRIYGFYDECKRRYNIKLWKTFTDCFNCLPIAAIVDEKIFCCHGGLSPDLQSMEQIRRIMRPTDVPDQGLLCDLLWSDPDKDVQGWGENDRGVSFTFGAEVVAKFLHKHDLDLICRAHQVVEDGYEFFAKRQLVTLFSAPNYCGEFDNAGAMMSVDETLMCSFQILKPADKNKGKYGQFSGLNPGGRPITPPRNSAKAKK

Compound: C=C1[C@@H](O)[C@@H]2O[C@]3(CC[C@H](/C=C/[C@@H](C)[C@@H]4CC(C)=C[C@@]5(O[C@H](C[C@@](C)(O)C(=O)O)CC[C@H]5O)O4)O3)CC[C@H]2O[C@@H]1[C@@H](O)C[C@H](C)[C@H]1O[C@@]2(CCCCO2)CC[C@H]1C [OA, okadaic acid]
- IC50: 1180 nM
